Measurements published in patent publication US4803208A, “Opiate agonists and antagonists” (Sloan-Kettering Institute For Cancer Research, priority 1985, dated 1989).
“And” between values parts separate entries of the source, which are not always exact repeats. Identical values can stand only once.

Assays:
[1] = currently available agents; cited from earlier work
rats [2] = conditions: cited from earlier work
prolactin release [3] = experiment: Prolactin release in vivo; conditions: in vivo
prolactin release [4] = conditions: cited from earlier work
growth hormone release [5] = conditions: cited from earlier work
rats [6] = format: in vivo, rat; conditions: 50 mg/kg intravenously
Procedure: They were then food deprived for 24 hours but allowed free access to water. Five rats received saline, four received naloxone and three naloxazone. […] The animals were then given free access to food for 1 hour and their weight gain noted. Thus, eating was measured 24 hours after the administration of the drugs and after 24 hours of food deprivation.

growth hormone release [7] = experiment: Growth hormone release in vivo; conditions: in vivo

SMILES: C=CCN1CC[C@]23c4c5ccc(O)c4O[C@H]2C(=O)CC[C@@]3(O)[C@H]1C5 [Naloxone, naloxone]
- half-life (in words) [1]: short half-life
- suppression of eating behavior (known) (rats [2]): effectively suppress eating behavior in rats
- effect on prolactin release (in words) (prolactin release [3]): inhibits morphine's release of both hormones
- effect on basal levels of prolactin, naloxone (in words) (prolactin release [4]): lowering of the basal levels of prolactin and growth hormone
- effect on basal levels of growth hormone, naloxone (in words) (growth hormone release [5]): lowering of the basal levels of prolactin and growth hormone
- effect on feeding (in words) (rats [6]): inability of naloxone to effect feeding behavior
- Amounts eaten, individual animals (rats [6]; 1 hour free access to food, 24 hours after drug): 4.1 grams and 5.3 grams and 4.4 grams and 3.7 grams
- Amounts eaten, Mean ± SEM (rats [6]; 1 hour free access to food, 24 hours after drug, saline 4.78 ± 0.42, significant at the p 0.05 level (ANOVA)): 4.38 ± 0.34 grams
- effect on growth hormone release (in words) (growth hormone release [7]): inhibits morphine's release of both hormones
